Data on four compounds can be found in paper PMC3433420 (PLoS ONE, 2012).

The target of assay [1] is T1, PIK3R3-C SH2 domain (Homo sapiens, UniProt Q92569).
T1 construct: thioredoxin; made in house; host or cells: E. coli BL21(DE3)pLysS
The assay is described as follows: Surface plasmon resonance (Biacore 3000). Type of assay: binding. The conditions noted are these: SPR, NA = no interaction detected. The protocol:
(§1) All SPR experiments were performed using Biacore 3000 (GE HealthCare, Piscataway, NJ) instrumentation. 6X His-tagged SH2 domain proteins were immobilized on a nitriloacetic acid (NTA) sensor chip (GE HealthCare, Piscataway, NJ) charged with Ni^2+ ions. Dye-free ErbB family peptides were applied to the sensor chip in a single flow cell in solution phase (while the other flow cell was used as a reference control) and binding events were measured under equilibrium conditions. FP false positive [drawing 7] (FPR), false discovery [drawing 8] (FDR), and false negative [drawing 9] (FNR) rates were calculated by defining true positives (TP) as interactions detected by both FP and SPR, true negatives (TN) as interactions detected by neither FP nor SPR; false positives as interactions identified by FP but not validated by SPR; and false negatives (FN) as interactions missed by FP but detected by SPR. Additional details for all methods are provided in the Supplementary Methods.
A randomly selected set of 12 recombinant SH2 domain proteins and unlabeled (rhodamine dye free) peptides (9 ErbB, 2 GAB1, 2 KIT, 2 MET) were generated for the surface plasmon resonance (SPR) validation study. The 6X His-tagged SH2 domain proteins used in the assay, PLCG1-C, SHC4, VAV2, TNS3, PIK3R3-C, SYK-C, PIK3R1-N, SUPT6H, CRKL, TEC, SHB, and SHC3 were produced and purified as previously described (see “SH2 and PTB domain proteins” section and Jones et al., 2006). Fresh protein stocks were generated so as to avoid bias incurred from proteins previously used in the FP assays. 13-mer peptides corresponding to ErbB1 pY801, ErbB1 pY900, ErbB1 pY978, ErbB1 pY1069, ErbB2 pY685, ErbB pY803, ErbB3 pY912, ErbB4 pY833, ErbB4 pY906, GAB1 pY183, GAB1 pY472, KIT pY570, KIT pY936, MET pY1093 and MET pY1313, were synthesized successfully for the assay using previously described approaches (see “FP competitor peptide synthesis” section). For SPR detection via the Biacore 3000 (GE HealthCare, Piscataway, NJ), His-tagged SH2 domains were immobilized on Biacore NTA sensor chips (GE HealthCare, Piscataway, NJ) pre-charged with Ni^2+ ions in one flow cell while the second served as a negative control reference cell. Peptides were introduced in solution phase to both cells and relative response units (RUs) were recorded from output sensograms. Nine concentrations of peptide and a buffer control, in duplicate, were used to determine KDs using the equilibrium method (best-fit simultaneous modeling for peptide association and disassociation curves).
For orientation: SPR reads the build-up and loss of mass on a sensor chip optically.

The target in assay [2] is T2, PIK3R1-N SH2 domain (Homo sapiens, UniProt P27986).
T2 construct: thioredoxin; made in house; host or cells: E. coli BL21(DE3)pLysS
Kind of assay: biochemical. The format is binding. The conditions noted are these: FP, PIK3R1-N; mean; NA = no interaction detected.

The target of assay [3] is T1, PIK3R3-C SH2 domain. The assay is described as follows: biochemical. The conditions noted are these: FP, PIK3R3-C; mean; NA = no interaction detected. The format is binding.
The target in assay [4] is T2, PIK3R1-N SH2 domain. Kind of assay: Surface plasmon resonance (Biacore 3000). The format is binding. The note with it: SPR, NA = no interaction detected. The protocol:
as §1
(§2) Fresh protein stocks were generated so as to avoid bias incurred from proteins previously used in the FP assays. […]

The target of assay [5] is T3, GRB7 SH2 domain (Homo sapiens, UniProt Q14451). The assay is described as follows: FP saturation binding assay. The note with it: read-out: Ki ( exp FP); competing peptide, GRB7; Ki expected from FP; NI = no interaction.
Assay [6] addresses T4, RASA1-N SH2 domain (Homo sapiens, UniProt P20936).
T4 sequence (P20936 181-272 limits assumed): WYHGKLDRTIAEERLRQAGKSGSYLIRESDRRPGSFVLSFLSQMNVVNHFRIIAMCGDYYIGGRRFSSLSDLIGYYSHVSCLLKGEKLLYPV
Kind of assay: FP competition assay. The note with it: RASA1N, Fig. 3 graph A, read-out: Ki (obs). More on the design: 6X His; thioredoxin; made in house; host or cells: E. coli BL21(DE3)pLysS. The format is binding. The protocol: (§3) Unlabeled phosphopeptides were synthesized with some modifications to the previously described protocol. […] Unlabeled competitor peptides were prepared at 11 serial 1∶3 dilutions in assay buffer; one control with no unlabeled competitor peptides was also included with each experimental set. The fluorescent peptide, protein, and unlabeled peptide mixtures were allowed to incubate for a minimum of 20 minutes in 384-well plates and polarization signals were measured using the Analyst GT multimode reader as previously described above. Inhibition curves were constructed by four-parameter log-logistic regression using the “drc” package in R with the parameters for maximum and minimum fluorescence fixed according to Z’ factor positive and negative control values. IC50 values were estimated from these fits under a one-site competition binding model and Ki calculated according to the equation developed by.

Assay [7] has as its target T3, GRB7 SH2 domain. Kind of assay: FP competition assay. The format is binding. More on the design: 6X His; thioredoxin; made in house; host or cells: E. coli BL21(DE3)pLysS. The note with it: labeled peptide ErbB3pY1197, Fig. 3 graph C, read-out: Ki (obs). The protocol: as §3
For assay [8], the target named is T4, RASA1-N SH2 domain. Kind of assay: FP saturation binding assay.
The target in the next assay is T5, SRC SH2 domain (Homo sapiens, UniProt P12931).
T5 construct: between the c-Src SH2 domain and ErbB1 in our FP assay; 6X His; thioredoxin; made in house; host or cells: E. coli BL21(DE3)pLysS
Kind of assay: FP competition assay. The format is binding. The note with it: labeled peptide ErbB3pY1222, Fig. 3 graph B, read-out: Ki (obs). The protocol: as §3

The target in assay [9] is T6, SHC3 SH2 domain (Homo sapiens, UniProt Q92529). Kind of assay: FP saturation binding assay.
The target in the next assay is T7, TNS3 SH2 domain (Homo sapiens, UniProt Q68CZ2).
T7 sequence (Q68CZ2 1172-1282 limits assumed): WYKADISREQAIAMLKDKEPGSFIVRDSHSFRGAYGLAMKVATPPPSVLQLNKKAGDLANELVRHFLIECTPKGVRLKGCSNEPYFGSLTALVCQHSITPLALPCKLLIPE
Kind of assay: FP saturation binding assay.

Assay [10] addresses T6, SHC3 SH2 domain. Kind of assay: Surface plasmon resonance (Biacore 3000). Type of assay: binding. The arrangement: A randomly selected set of 12 recombinant SH2 domain proteins; thioredoxin; made in house; host or cells: E. coli BL21(DE3)pLysS. The conditions noted are these: SPR, NA = no interaction detected. The protocol:
as §1, §2

Where two headings read alike, the source gives them in different places. Residues, ends and D or L forms follow the SMILES beside them.

T6 sequence (Q92529 499-590 limits assumed): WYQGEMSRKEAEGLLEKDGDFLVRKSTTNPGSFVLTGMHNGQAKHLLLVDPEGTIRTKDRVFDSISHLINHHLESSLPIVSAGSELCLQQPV
T3 sequence (Q14451 431-527 limits assumed): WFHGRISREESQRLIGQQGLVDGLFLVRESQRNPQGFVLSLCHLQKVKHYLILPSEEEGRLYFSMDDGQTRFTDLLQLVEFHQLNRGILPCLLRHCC
T2 sequence (P27986 333-428 limits assumed): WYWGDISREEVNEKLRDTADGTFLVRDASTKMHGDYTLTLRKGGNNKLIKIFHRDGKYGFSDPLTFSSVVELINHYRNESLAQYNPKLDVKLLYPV
T5 sequence (P12931 151-248 limits assumed): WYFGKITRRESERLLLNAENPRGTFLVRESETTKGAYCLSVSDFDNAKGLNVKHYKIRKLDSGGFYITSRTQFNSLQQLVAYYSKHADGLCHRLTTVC

As a reminder, the Kd is the equilibrium constant for the complex coming apart. As for `CC[C@H](C)[C@H](NC(=O)[C@@H](N)CCCCN)C(=O)N[C@@H](CCCNC(=N)N)C(=O)N[C@@H](CCCCN)C(=O)N[C@@H](Cc1ccc(OP(=O)(O)O)cc1)C(=O)N[C@H](C(=O)N[C@@H](CCSC)C(=O)N[C@@H](CCCNC(=N)N)C(=O)N[C@@H](CCCNC(=N)N)C(=O)N[C@@H](CC(C)C)C(=O)N[C@@H](CC(C)C)C(=O)N[C@@H](CCC(N)=O)C(=O)N[C@@H](CC(=O)O)C(=O)O)[C@@H](C)O` [ErbB2 685] (HELM PEPTIDE1{K.I.R.K.[O=C([C@H](Cc1ccc(OP(=O)(O)O)cc1)N[*:1])[*:2]].T.M.R.R.L.L.Q.D}$$$$V2.0), the Kd at PIK3R3-C SH2 domain [1] came out at 1.52 µM; on PIK3R1-N SH2 domain [2], 2.51 µM; at PIK3R3-C SH2 domain [3], 4.43 µM; at PIK3R1-N SH2 domain [4] it was 13.4 µM.

The term Ki denotes the equilibrium dissociation constant of an inhibitor or competing ligand from its target. With `CC(C)C[C@H](NC(=O)[C@H](Cc1ccc(OP(=O)(O)O)cc1)NC(=O)[C@H](CCC(=O)O)NC(=O)[C@@H]1CCCN1C(=O)[C@H](CC(N)=O)NC(=O)[C@@H](N)CCC(=O)O)C(=O)N[C@H](C(=O)N1CCC[C@H]1C(=O)N[C@@H](CCC(N)=O)C(=O)NCC(=O)NCC(=O)N[C@@H](C)C(=O)N[C@@H](CC(=O)O)C(=O)O)[C@@H](C)O` [ErbB2 pY1196], the inhibitory constant (Ki) on GRB7 SH2 domain [5] was above 20 µM; at RASA1-N SH2 domain [6] (labeled peptide ErbB2pY1196), 2.29 µM; on RASA1-N SH2 domain [6] (labeled peptide ErbB3pY1307), 3.54 µM; at GRB7 SH2 domain [7], 10.9 µM. The Kd on RASA1-N SH2 domain [8] came to 1.86 µM.

Regarding `CSCC[C@H](NC(=O)[C@H](Cc1ccc(O)cc1)NC(=O)[C@H](CCC(=O)O)NC(=O)[C@H](Cc1ccc(OP(=O)(O)O)cc1)NC(=O)CNC(=O)[C@H](CC(C)C)NC(=O)[C@H](CCC(=O)O)NC(=O)[C@@H](N)CCC(=O)O)C(=O)N[C@@H](CC(=O)O)C(=O)N[C@H](C(=O)NCC(=O)N[C@@H](CO)C(=O)N[C@@H](CC(=O)O)C(=O)O)C(C)C` [ErbB3 pY1222] (HELM PEPTIDE1{E.E.L.G.[O=C([C@H](Cc1ccc(OP(=O)(O)O)cc1)N[*:1])[*:2]].E.Y.M.D.V.G.S.D}$$$$V2.0), the Ki on SRC SH2 domain is 2.36 µM.

Regarding `CC[C@H](C)[C@H](NC(=O)[C@@H](NC(=O)[C@@H](NC(=O)CNC(=O)[C@H](Cc1ccc(OP(=O)(O)O)cc1)NC(=O)[C@H](CO)NC(=O)[C@H](Cc1c[nH]c2ccccc12)NC(=O)[C@@H](NC(=O)[C@@H](N)CC(=O)O)C(C)C)C(C)C)[C@@H](C)O)C(=O)N[C@@H](Cc1c[nH]c2ccccc12)C(=O)N[C@@H](CCC(=O)O)C(=O)N[C@@H](CC(C)C)C(=O)N[C@@H](CC(=O)O)C(=O)O` [ErbB4 906] (HELM PEPTIDE1{D.V.W.S.[O=C([C@H](Cc1ccc(OP(=O)(O)O)cc1)N[*:1])[*:2]].G.V.T.I.W.E.L.D}$$$$V2.0), the Kd at PIK3R3-C SH2 domain [1] stood at 0.566 µM; at SHC3 SH2 domain [9], 0.54 µM; at TNS3 SH2 domain, 0.8 µM; at SHC3 SH2 domain [10], 6.71 µM; at PIK3R3-C SH2 domain [3] it was 1.84 µM.
